This note sets out measurements from patent US8354398B2, “Substituted isoxazole compounds” (Bristol-Myers Squibb Company, priority 2009, dated 2013).

As a reminder, the EC50 is the concentration needed to bring the measured effect to its halfway point.

Experiment [1] has as its system experimental autoimmune encephalomyelitis (clinical score). Description: Mouse Experimental Autoimmune Encephalomyelitis Assay (EAE). To be noted: for Clinical Score on day 21, Mean: C57BL/6 female mice, vehicle mean 2.79. Format: in vivo, C57BL/6 mice.
Experiment [2] relates to circulating lymphocytes. Kind of experiment: Blood Lymphocyte Reduction Assay (BLR) in mice. Format: in vivo. Particulars: BALB/c mice, oral, vs vehicle group. The method, then: (§1) Lewis rats or BALB/c mice were dosed orally with test article (as a solution or suspension in the vehicle) or vehicle alone (polyethylene glycol 300, “PEG300”). Blood was drawn at 4 hr and 24 h by retro-orbital bleeding. Blood lymphocyte counts were determined on an ADVIA® 120 Hematology Analyzer (Siemens Healthcare Diagnostics). The results were measured as a reduction in the percentage of circulating lymphocytes as compared to the vehicle treated group at the 4 hr and 24 hr measurement. The results represent the average results of all animals within each treatment group (n=3-4).
(§2) Examples 1 and 2 were tested in the Blood Lymphocyte Reduction assay (BLR) described hereinabove and the results are shown in Table D for rats and Table E for mice.

Experiment [3] addresses S1P1 (Homo sapiens, UniProt P21453). Description: Method A: Receptor [35S] GTPγS Binding Assay, membranes from S1P1/CHO cells. More on the design: expressed in transfected cells; host or cells: S1P1/CHO cells. Format: biochemical. The method in brief: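 Membranes ([…]) incubated 45 min at room temperature with 3-fold compound dilutions and 0.2 nM final [35S]GTPγS in HEPES pH 7.5 buffer containing 10 μM GDP, MgCl2, EGTA, DTT, BSA and saponin. Bound label collected by filtration and scintillation counting; EC50 taken at 50% of each compound's Ymax.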
(In general: GTPγS resists hydrolysis and so accumulates on activated G proteins.)

The test system of experiment [4] is circulating lymphocytes. Kind of experiment: Blood Lymphocyte Reduction Assay (BLR) in rats. Format: in vivo. To be noted: Lewis rats, oral, vs vehicle group. The method, then: as §1, §2
Experiment [5] concerns the target S1P3 (Homo sapiens, UniProt Q99500). Kind of experiment: Method B: Receptor [35S] GTPγS SPA Binding Assay, membranes from S1P3 transfected CHO cells. Format: biochemical. More on the design: expressed in transfected cells; host or cells: CHO cells. To be noted: S1P3 transfected CHO cell membranes, NC = a satisfactory dose response curve was not obtained. The method, then: Membranes prepared from S1P1 or S1P3 transfected CHO cells (2 μg protein) were incubated in 96-well white plates (CORNING® 3693) with test compounds diluted in DMSO, in 50 μl of reaction mixture containing 7.5 μl WGA-PVT beads (20 mg/ml), and 5 μM GDP, 20 mM HEPES pH 7.4, 100 mM NaCl, 1 mM EDTA, 5 mM MgCl2, 10 μg/ml saponin, 0.1% BSA, and 1 μM leupeptin. The assay was initiated with the addition of 25 μl of 0.2 nM [^35S]-GTPγS (1250 Ci/mmol; NEN) in assay buffer. After 90 min incubation at room temperature, spin the plate at 1000 rpm for 5 min. The bound radionuclides were measured at TOPCOUNT®, expressed as % response relative to S1P (1 μM) activation. Data was analyzed using the four parameter logistic equation in Excel. The four parameters in the equation, Y=A+((B−A)/(1+((EC50/X)^D))), are described as following: A is the Y value (agonist activity) at the bottom plateau; B is the Y value at the top plateau; EC50 is the X value (agonist concentration) when the response is halfway between bottom and top; D is Hill coefficient. Curves were not generated for compounds having Ymax values were below 50%.
Compounds of the present invention and Comparative Compound A were tested in the Receptor [^35S] GTPγS Binding Assays (Method A) and Receptor [35S] In some instances, the value is an average of multiple experiments where N is the number of experiments conducted that provided satisfactory dose response curves. When more than one batch of an example was tested, the value presented is from a batch which allowed a comparison of GTPγS S1P1 and GTPγS S1P3 in which the most number of experiments were performed. Preferably, the same batch was examined in Method A and Method B. Data was not averaged across different batches of an example compound.

Sequence of S1P1 (P21453 whole entry): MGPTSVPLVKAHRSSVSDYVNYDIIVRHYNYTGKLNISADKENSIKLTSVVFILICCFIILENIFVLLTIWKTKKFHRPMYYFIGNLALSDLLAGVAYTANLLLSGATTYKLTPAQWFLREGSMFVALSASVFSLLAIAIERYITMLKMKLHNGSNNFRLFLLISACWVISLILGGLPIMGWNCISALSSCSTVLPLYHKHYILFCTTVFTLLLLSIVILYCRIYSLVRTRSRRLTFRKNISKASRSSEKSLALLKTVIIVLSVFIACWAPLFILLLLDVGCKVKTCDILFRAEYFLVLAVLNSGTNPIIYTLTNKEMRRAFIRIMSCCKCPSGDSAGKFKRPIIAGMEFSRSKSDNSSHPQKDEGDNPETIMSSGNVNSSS
Sequence of S1P3 (Q99500 whole entry, species assumed): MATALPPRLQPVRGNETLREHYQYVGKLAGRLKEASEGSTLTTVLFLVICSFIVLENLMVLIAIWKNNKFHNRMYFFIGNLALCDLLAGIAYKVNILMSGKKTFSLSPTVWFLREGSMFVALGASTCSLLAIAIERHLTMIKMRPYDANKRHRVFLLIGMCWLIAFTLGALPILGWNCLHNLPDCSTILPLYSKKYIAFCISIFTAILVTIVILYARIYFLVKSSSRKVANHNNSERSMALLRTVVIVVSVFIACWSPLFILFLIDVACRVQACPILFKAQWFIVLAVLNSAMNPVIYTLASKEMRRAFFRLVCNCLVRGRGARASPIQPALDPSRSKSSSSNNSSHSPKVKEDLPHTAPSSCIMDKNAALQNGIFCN

Turning to `O=C(O)C1CN(Cc2ccc(-c3noc(-c4onc(-c5ccccc5)c4C(F)(F)F)n3)cc2)C1` [Example 1, 1-(4-(5-(3-Phenyl-4-(trifluoromethyl)isoxazol-5-yl)-1,2,4-oxadiazol-3-yl)benzyl)azetidine-3-carboxylic acid], the “Clinical Score on day 21, Mean” value in experiment [1] (0.02 mg/kg once daily from 1 day after immunization) was found to be 1.75; in experiment [1] (0.2 mg/kg once daily from 1 day after immunization), 1.13; in experiment [1] (2.0 mg/kg once daily from 1 day after immunization), 1.15. Also, in experiment [1] (C57Bl/6 mice, prophylactic oral dosing), the “disease progression as determined by the clinical scores” value is “inhibits disease progression”. Also, the “% reduction in lymphocytes at 4 hr.” value in experiment [2] (0.001 mg/kg) is on record as 12%; in experiment [2] (0.01 mg/kg) it was 32%; in experiment [2] (0.1 mg/kg), 85%; in experiment [2] (1.0 mg/kg), 90%; in experiment [4] (0.03 mg/kg), 75%; in experiment [4] (0.3 mg/kg), 82%. Also, the “% reduction in lymphocytes at 24 hr.” value came out at 31% in experiment [2] (0.001 mg/kg); 45% in experiment [2] (0.01 mg/kg); 89% in experiment [2] (0.1 mg/kg); 91% in experiment [2] (1.0 mg/kg); 45% in experiment [4] (0.03 mg/kg); 73% in experiment [4] (0.3 mg/kg). Also, the EC50 in experiment [3] (Method A, S1P1/CHO cell membranes) came out at 0.68 nM; in experiment [5], 510 nM. For the same molecule, in experiment [3] (ratio of GTPγS S1P3 EC50 to GTPγS S1P1 EC50, Method A), the “GTPγS S1P3/S1P1 (Method A)” value is listed as 1,400.
